SMILES	melting point
N#CCCNC(=O)c1cccc(-c2ncc3ccn(Cc4ccc(Cl)cc4Cl)c3n2)c1	198 to 199 °C
CN1CCC(N2C(=O)c3cc(Cl)ccc3Sc3ccccc32)CC1	164 to 165 °C
Oc1ccc(-c2cc3cc(O)ccc3o2)c(-c2ccccc2)c1	167 to 170 °C
CC(=O)N1Cc2c(-c3nc(C4CC4)no3)ncn2-c2ccccc21	202 °C
O=C1C(=O)c2ccccc2C2=C1SCC1(CCN(C(=O)c3ccco3)CC1)O2	165 °C
Cc1cc(Oc2c(Cl)cc(C(F)(F)F)cc2[N+](=O)[O-])nn1C(=O)OC(C)(C)C	119 to 121 °C
COc1cc2c(-c3ccncc3)c(C(=O)O)oc(=O)c2cc1OC	> 250 °C
COc1ccc(/C=C/C(=O)Nc2ccc(Br)cc2C(=O)O)cc1OC	210 to 213 °C
CCCCCCCCCCOC(=O)c1cc(C(=O)OCCCCCCCCCC)cc([N+](=O)[O-])c1	48 to 50 °C
C[Si](C)(C)CCOC(=O)CN1C(=O)[C@@H](N2C(=O)c3ccccc3C2=O)CSC1c1ccccc1 (some centres not stated)	58 to 60 °C
COc1cccc(C=Cc2ccccc2)c1O	85 to 87 °C
CON=Cc1ccccc1OCc1ccccc1C(=NOC)C(=O)OC	73 to 76 °C
Cc1cc(C)c2c(c1C)OCC2c1ccccc1 (configuration not stated)	72 to 73 °C
CC(C)Cc1cc(-c2cc(C=C3SC(=O)NC3=O)ccc2OC(F)(F)F)c2c(c1)C(C)(C)CO2	142 to 146 °C
Cn1c(SSc2c(C(=O)Nc3ccccc3)c3cc(O)ccc3n2C)c(C(=O)Nc2ccccc2)c2cc(O)ccc21	185 to 187 °C
COC(=O)C1=C(N)NC(C)=C([N+](=O)[O-])C1c1ccccc1S(=O)(=O)CCCCN1CCN(c2ccccc2OC)CC1 (configuration not stated)	145 to 147 °C
CCc1nc2c(C)nc(C)cc2n1-c1ccc(CCNC(=O)NS(=O)(=O)c2ccc(C)cc2)cc1	143 °C
OCCn1c(NC2CCN(Cc3ccccc3)CC2)nc2cccnc21	126 °C
Cc1nc(NC(=O)c2cccc(C(F)(F)F)c2)sc1C(=O)NCc1ccccc1	195 to 196 °C
COc1c2ccccc2nc2c1c(C)nn2-c1ccccn1	44 to 47 °C
O=C(c1ccc(F)cc1)C1CCN(CCCn2c(=O)[nH]c3cccc(Cl)c32)CC1	138 °C
COC(=O)CCc1ncccc1O	94 to 96 °C
CCOC(=O)CC(NC(=O)c1ccc(Cl)cc1)C(=O)c1cccs1 (configuration not stated)	112 to 113 °C
CC(C)(C)C1CCc2oc(=O)c(-c3ccccc3)c(O)c2C1 (configuration not stated)	195 °C
CCOC(=O)c1cccc(NC(=O)C=Cc2cc(C(C)C)c(C(C)C)o2)c1	160 to 161 °C

SMILES	melting point
CCN(CC)CC1CCCCN1CCNC(=O)N1c2ccc(C)cc2C(=O)Nc2cccnc21 (configuration not stated)	148 to 150 °C
O=C(Cc1cc(C(F)(F)F)cc(C(F)(F)F)c1)N1CCN(C(=O)CNC2CCN(Cc3ccccc3)CC2)C(c2ccccc2)C1 (configuration not stated)	49 to 52 °C
COC(=O)c1oc2c(sc3ccccc32)c1O	124 to 125 °C
C=CC(=O)NC(C)(C)CS(=O)(=O)OC	80.6 °C
COC(=O)[C@@H]1C[C@H](O[Si](C)(C)C)C(=O)[C@H]2[C@@]1(C)CC[C@H]1C(=O)O[C@H](c3ccoc3)C[C@]21C	197 to 200 °C
CC1C(=O)N(C(=O)NS(=O)(=O)c2ccc(Cl)cc2)N1C(c1ccccc1)c1ccccc1 (configuration not stated)	124 to 129 °C
COc1cccc(N2Sc3ccccc3CC2=O)c1OCc1ccccc1	151 to 153 °C
O=C(CCC1CCN(Cc2cccc(F)c2)CC1)c1cc2c3c(c1)CCN3C(=O)CC2	111 to 112 °C
Cc1nc(N2CCN(CCC3CC3)C2=O)sc1C(=O)NCc1cccnc1	146 to 147 °C
Cc1cc(OC(=O)c2ccccc2)ccc1O	120 to 122 °C
COc1ccc(CCCCOCc2cccc(/C=C/c3cccc(NC(=O)CCC(C)(C)C(=O)O)c3)n2)cc1	141 to 142 °C
CC(C)(C)c1ccc2c3c(c(=O)oc2c1)CNCC3	181 to 186 °C
OC(c1ccnc2cc(Cl)ccc12)C(F)(F)F (configuration not stated)	161 °C
CC1(C)C=C(c2ccccn2)c2cc(Cl)cc(Cl)c2OC1	124 °C
COc1ccc(NC(=O)N2C(=O)CC(c3ccc(OC)c(OC4CCCC4)c3)N2C)cc1 (configuration not stated)	123 to 125 °C
CNC(=O)NC(=O)C(CC1CCCC1)c1ccc(S(C)(=O)=O)c(C#N)c1 (configuration not stated)	237 to 239 °C
CCCC1=C(C#N)C(c2ccccc2OC)c2c[nH]nc2N1 (configuration not stated)	203 °C
O=C(CCCCl)Nc1cccc2cccnc12	62 to 63 °C
COC(=O)C1=C(C)NC(C)=C(C(=O)NCCCN2CCN(c3ccccc3OC)CC2)C1c1cccc([N+](=O)[O-])c1 (configuration not stated)	70 to 80 °C
CC(C)Cc1ccc(C(C)C(=N)NO)cc1 (configuration not stated)	75 to 78 °C
Nc1cccc(Cl)c1O	113 to 114 °C
CCC(=N)Nc1ccccc1N1CCOCC1	114 °C
COc1cc(-c2csc(N)n2)cc([N+](=O)[O-])c1O	248 to 250 °C
Clc1ccnc2ncnn12	190 °C
COC(=O)c1ccc(Cl)nc1C1=NC(=O)C(C)(C(C)C)N1 (configuration not stated)	102 to 104 °C

SMILES	melting point
CS(=O)(=O)c1ccc(-c2cnn(-c3ccc(F)c(F)c3)c(=O)c2C#Cc2ccccc2)cc1	211 to 213 °C
Cc1nc(-c2ccccc2)cc(-c2cccc([N+](=O)[O-])c2)c1C(=O)NCCN1CCOCC1	141 to 142 °C
CCOn1c(OC)n[nH]c1=O	57 °C
COC(=O)c1ccccc1S(=O)(=O)NC(=O)Nc1nc(C)c2ccccc2n1	182 to 183 °C
Cc1cncn1-c1cc(C#N)cc(C(F)(F)F)c1	99 to 101 °C
CCNc1nc(Nc2ccccc2)ncc1C(=O)OCC	145 to 147 °C
CCOC(=O)Cc1[nH]c(C(=O)OC(C)(C)C)c(CCc2cccc(Cl)c2)c1C(=O)OCC	131 to 132 °C
O=C1C2CC(CN(Cc3ccccc3)C2)CN1Cc1ccccc1 (configuration not stated)	82.5 to 83.5 °C
OCCCn1c(-c2c(Cl)cccc2Cl)nc(-c2ccncc2)c1-c1ccc(Cl)cc1	233 to 235 °C
CCOC(=O)/C(N)=C/C(=O)/C=C/c1ccc(Cl)cc1	105 to 107 °C
O=C(O)C#Cc1ccc(-c2ccc(Cl)cc2)cn1	210 °C
CC(=O)n1ccc(=O)c(O)c1C	152 to 160 °C
COCCN(CCOC)Cc1ccc(NC(=O)C2=Cc3cc(-c4ccc(C)cc4)ccc3OCC2)cc1	110 to 112 °C
CNS(=O)(=O)c1cn(C)c2cc(C)ccc2c1=O	237 to 240 °C
Nc1ccc([C@@H](O)CNC[C@H]2CCc3cc(NS(=O)(=O)c4ccc(-n5nnn(CCCC6CCCCC6)c5=O)cc4)ccc3O2)cn1	94 to 95 °C
CCCCCC(C)C(C)c1cc(OC)c2c(c1)OC(C)(C)C1=C2CN(C(N)=NO)CC1 (configuration not stated)	176 to 178 °C
Cc1ccc(C)n1-c1ccc(F)c([N+](=O)[O-])c1	99 to 101 °C
COc1ccc2cc(CN(C)C(=O)c3oc4ccccc4c3CCc3ccccc3)ccc2c1Br	54 to 57 °C
CCOCC(C)Oc1ccc(CSc2cnn(C(C)(C)C)c(=O)c2Cl)cc1 (configuration not stated)	89.2 to 90.2 °C
Fc1ccc(-c2cncc(CN3CCN(c4ncccn4)CC3)c2)cc1	97 to 98 °C
COC(=O)c1ccc(Cn2ncc3ccc(NC(=O)OC4CCCC4)cc32)c(OC)c1	150 to 151 °C
COC(=O)c1cc(C(=O)c2cccc(F)c2)ccc1OC	140 °C
O=S1(=O)NC2CCCN2c2ccc(Oc3cccc(-c4nnn[nH]4)c3)cc21 (configuration not stated)	266 to 272 °C
COc1cc([N+](=O)[O-])c(CCC(=O)O)c([N+](=O)[O-])c1O	195 °C
CONCc1nc2c(N)nc3cc(-c4cccnc4)cnc3c2n1CC(C)(C)O	195 to 197 °C

SMILES	melting point
Cc1ncccc1NC(=NC#N)NC(NC(=O)Cc1ccc(F)cc1)C(C)(C)C (configuration not stated)	166 to 167 °C
CS(=O)(=O)c1ccc(C2=C(c3cccc(F)c3)CN(C3CC3)C2=O)cc1	179 to 180 °C
CCOC(=N)c1ccc(Cl)c(Cl)c1	62 to 64 °C
CCN(C(=O)OC(C)(C)C)C1CC=C(c2c[nH]c3cc(NC(=N)c4cccs4)ccc23)CC1 (configuration not stated)	110 to 112 °C
Cc1cc(C=O)c(C)c(Br)c1C	108 to 110 °C
CCCCCn1cc2cc(CCCC)oc2nc1=O	139 to 141 °C
Cc1ccc2cccc(OCc3c(Cl)ccc(N)c3C#N)c2n1	248 to 251 °C
O=C(O)c1c2c(nc3ccc(F)cc13)-c1cc(F)c(-c3ccc(F)cc3)cc1CCC2	> 300 °C
c1ccc2c(c1)OCC(CCc1ncc[nH]1)O2 (configuration not stated)	159 to 160 °C
Cc1ccc2nc(-c3ccccc3)oc2c1	93 °C
CCOC(=O)c1cnc2c(SC(=O)N(C)C)nccn2c1=O	125 to 128 °C
CCOC(=O)c1cn(Cc2csnn2)c2cc(F)c(F)cc2c1=O	234 to 237 °C
O=C1c2ccccc2CN1C1CCN(CCCCC2(C(=O)NCC(F)(F)F)c3ccccc3-c3ccccc32)CC1	143 to 146 °C
CC(C)(C)c1cc(-c2ccc(C(=O)O)c(C(C)(C)C)c2)ccc1O	> 240 °C
CC1(C)CC(=NO)c2cc(F)ccc2O1	108 to 110 °C
Nc1nc2ccccc2c2c1ncn2CCOCC#Cc1ccccc1C(F)(F)F	154 to 155 °C
C[Si](C)(C)C#Cc1cn(C2CC(O)C(COC(c3ccccc3)(c3ccccc3)c3ccccc3)O2)c(=O)[nH]c1=O (configuration not stated)	104 °C
CCOC(=O)/C=C/[C@H]1O[C@@H](n2cc(CC)c(=O)[nH]c2=O)C[C@@H]1OC(C)=O	132 to 133 °C
COc1cccc(CNC(=O)c2nc3ccc(F)c(OCCc4ccc(-n5cn[nH]c5=O)cc4)c3c(=O)[nH]2)c1	196 to 198 °C
CC(C)CC(C(=O)O)c1cc(OCC2CC2)c(-c2ccc(C(F)(F)F)cc2)cc1F (configuration not stated)	110 to 111 °C
CC(C)([C@H](NC(=O)OCC1c2ccccc2-c2ccccc21)C(=O)O)S(C)(=O)=O	189 to 192 °C
C#CCN(C(C)=O)c1cccc(-c2ccc3nncn3n2)c1	195 to 198 °C

Reference: a melting point compilation (Tetko et al.; mined from patent text by program, amines drawn as free bases though some values may be those of a salt)
